Measurements from patent US20240016729A1, “INJECTABLE FORMULATIONS OF IBUDILAST” (MediciNova, Inc., priority 2022, published 2024).
In brackets after ≈: the same amount, converted by molar mass.

Tests used:
[1] = Initial solubility screen with various excipients; type: physicochemical; conditions: for solubility at 24 h: fully dissolved after 24 h
[2] = Follow-up solubility assessment (cosolvent mixtures, surfactants); type: physicochemical; conditions: thermodynamic from solid, ibudilast conc. 75 mg/mL
Protocol: Solubility of ibudilast was assessed using cosolvent mixtures with and without water, increased surfactant concentrations, or a combination of surfactant and cosolvents as shown in the following table.

- solubility ([1]; aqueous buffer, thermodynamic from solid, acetate buffer pH 5, 50 mM, ibudilast conc. 5 mg/mL): 0.175 mg/mL (≈ 0.76 mM)
- solubility ([1]; aqueous buffer, thermodynamic from solid, borate buffer pH 9, 50 mM, ibudilast conc. 5 mg/mL): 0.171 mg/mL (≈ 0.742 mM)
- solubility ([1]; aqueous buffer, thermodynamic from solid, citrate buffer pH 3, 50 mM, ibudilast conc. 5 mg/mL): 0.375 mg/mL (≈ 1.63 mM)
- solubility ([1]; aqueous buffer, thermodynamic from solid, phosphate buffer pH 7.5, 50 mM, ibudilast conc. 5 mg/mL): 0.175 mg/mL (≈ 0.76 mM)
- solubility ([1]; aqueous with cosolvent or surfactant or cyclodextrin, thermodynamic from solid, HP-β-CD 10% w/v, ibudilast conc. 25 mg/mL): 2.11 mg/mL (≈ 9.14 mM)
- solubility ([1]; aqueous with cosolvent or surfactant or cyclodextrin, thermodynamic from solid, HP-β-CD 30% w/v, ibudilast conc. 25 mg/mL): 6.72 mg/mL (≈ 29.2 mM)
- solubility ([1]; aqueous with cosolvent or surfactant or cyclodextrin, thermodynamic from solid, Kolliphor ELP 5% w/v, ibudilast conc. 25 mg/mL): 6.82 mg/mL (≈ 29.6 mM)
- solubility at 24 h ([1]; aqueous with cosolvent or surfactant or cyclodextrin, thermodynamic from solid, Kolliphor ELP 30% w/v, ibudilast conc. 25 mg/mL, solubility may be higher): 28 mg/mL (≈ 122 mM)
- solubility ([1]; aqueous with cosolvent or surfactant or cyclodextrin, thermodynamic from solid, Kolliphor HS 15 5% w/v, ibudilast conc. 25 mg/mL): 5.64 mg/mL (≈ 24.5 mM)
- solubility ([1]; aqueous with cosolvent or surfactant or cyclodextrin, thermodynamic from solid, Kolliphor HS 15 50% w/v, ibudilast conc. 25 mg/mL): 22.8 mg/mL (≈ 99 mM)
- solubility ([1]; aqueous with cosolvent or surfactant or cyclodextrin, thermodynamic from solid, Kolliphor RH 40 5% w/v, ibudilast conc. 25 mg/mL): 5.58 mg/mL (≈ 24.2 mM)
- solubility ([1]; aqueous with cosolvent or surfactant or cyclodextrin, thermodynamic from solid, Kolliphor RH 40 30% w/v, ibudilast conc. 25 mg/mL): 29.5 mg/mL (≈ 128 mM)
- solubility ([1]; aqueous with cosolvent or surfactant or cyclodextrin, thermodynamic from solid, PEG 400 25% w/v, ibudilast conc. 25 mg/mL): 1.11 mg/mL (≈ 4.81 mM)
- solubility ([1]; aqueous with cosolvent or surfactant or cyclodextrin, thermodynamic from solid, SBE-β-CD 10% w/v, ibudilast conc. 25 mg/mL): 3.79 mg/mL (≈ 16.4 mM)
- solubility ([1]; aqueous with cosolvent or surfactant or cyclodextrin, thermodynamic from solid, SBE-β-CD 30% w/v, ibudilast conc. 25 mg/mL): 11.9 mg/mL (≈ 51.6 mM)
- solubility ([1]; aqueous with cosolvent or surfactant or cyclodextrin, thermodynamic from solid, Tween 20 5% w/v, ibudilast conc. 25 mg/mL): 3.21 mg/mL (≈ 13.9 mM)
- solubility at 24 h ([1]; aqueous with cosolvent or surfactant or cyclodextrin, thermodynamic from solid, Tween 20 50% w/v, ibudilast conc. 25 mg/mL, solubility may be higher): 27.2 mg/mL (≈ 118 mM)
- solubility ([1]; aqueous with cosolvent or surfactant or cyclodextrin, thermodynamic from solid, Tween 80 5% w/v, ibudilast conc. 25 mg/mL): 4.79 mg/mL (≈ 20.8 mM)
- solubility ([1]; aqueous with cosolvent or surfactant or cyclodextrin, thermodynamic from solid, Tween 80 30% w/v, ibudilast conc. 25 mg/mL): 21.5 mg/mL (≈ 93.4 mM)
- solubility ([1]; aqueous with cosolvent or surfactant or cyclodextrin, thermodynamic from solid, ethanol 25% w/v, ibudilast conc. 25 mg/mL): 4.15 mg/mL (≈ 18 mM)
- solubility ([1]; aqueous with cosolvent or surfactant or cyclodextrin, thermodynamic from solid, glycerol 25% w/v, ibudilast conc. 25 mg/mL): 0.385 mg/mL (≈ 1.67 mM)
- solubility ([1]; organic solvent or mixture, thermodynamic from solid, PEG 400 100% w/v, more ibudilast added up to 50 mg/mL after 2 h tumbling, solubility may be higher): 51.6 mg/mL (≈ 224 mM)
- solubility ([1]; organic solvent or mixture, thermodynamic from solid, ethanol 100% w/v, more ibudilast added up to 50 mg/mL after 2 h tumbling, solubility may be higher): 50 mg/mL (≈ 217 mM)
- solubility ([1]; organic solvent or mixture, thermodynamic from solid, glycerol 100% w/v, ibudilast conc. 25 mg/mL): 10.3 mg/mL (≈ 44.7 mM)
- solubility ([1]; organic solvent or mixture, thermodynamic from solid, propylene glycol 100% w/v, more ibudilast added up to 50 mg/mL after 2 h tumbling, solubility may be higher): 52.9 mg/mL (≈ 230 mM)
- solubility ([1]; water, ibudilast conc. 5 mg/mL): 0.186 mg/mL (≈ 0.808 mM)
- solubility ([2]; Kolliphor ELP/ethanol/water 5/50/45 % w/v, aqueous with cosolvent or surfactant or cyclodextrin): 83.7 mg/mL
- solubility ([2]; Kolliphor ELP/propylene glycol/water 5/50/45 % w/v, aqueous with cosolvent or surfactant or cyclodextrin): 19.4 mg/mL
- solubility ([2]; Kolliphor ELP/propylene glycol/water 30/50/20 % w/v, aqueous with cosolvent or surfactant or cyclodextrin): 72.9 mg/mL
- solubility ([2]; Kolliphor ELP/water 30/70 % w/v, aqueous with cosolvent or surfactant or cyclodextrin): 42.7 mg/mL
- solubility ([2]; Kolliphor ELP/water 80/20 % w/v, aqueous with cosolvent or surfactant or cyclodextrin, less than 5 mL added due to viscosity of medium): 97.6 mg/mL
- solubility ([2]; PEG 400/water 50/50 % w/v cosolvent mixture, aqueous with cosolvent or surfactant or cyclodextrin, PEG 400/water 50/50 % w/v): 9.22 mg/mL
- solubility ([2]; Tween 80/ethanol/water 5/50/45 % w/v, aqueous with cosolvent or surfactant or cyclodextrin): 84 mg/mL
- solubility ([2]; Tween 80/propylene glycol/water 5/50/45 % w/v, aqueous with cosolvent or surfactant or cyclodextrin): 14.8 mg/mL
- solubility ([2]; Tween 80/propylene glycol/water 30/50/20 % w/v, aqueous with cosolvent or surfactant or cyclodextrin): 76.3 mg/mL
- solubility ([2]; Tween 80/water 30/70 % w/v, aqueous with cosolvent or surfactant or cyclodextrin): 31.9 mg/mL
- solubility ([2]; Tween 80/water 80/20 % w/v, aqueous with cosolvent or surfactant or cyclodextrin, less than 5 mL added due to viscosity of medium): 84.4 mg/mL
- solubility ([2]; aqueous with cosolvent or surfactant or cyclodextrin, propylene glycol/ethanol/water 50/25/25 % w/v): 71.4 mg/mL
- solubility ([2]; ethanol/water 50/50 % w/v, aqueous with cosolvent or surfactant or cyclodextrin): 72.6 mg/mL
- solubility ([2]; organic solvent or mixture, propylene glycol/PEG 400/glycerol 50/25/25 % w/v): 68.7 mg/mL
- solubility ([2]; organic solvent or mixture, propylene glycol/ethanol/glycerol 50/25/25 % w/v): 71.9 mg/mL
- solubility ([2]; propylene glycol/PEG 400/water 50/25/25 % w/v, aqueous with cosolvent or surfactant or cyclodextrin): 31.3 mg/mL
- solubility ([2]; propylene glycol/water 50/50 % w/v, aqueous with cosolvent or surfactant or cyclodextrin): 5.82 mg/mL
- solubility ([2]; propylene glycol/water 80/20 % w/v, aqueous with cosolvent or surfactant or cyclodextrin): 37.3 mg/mL
Compound: CC(C)C(=O)c1c(C(C)C)nn2ccccc12 [ibudilast, 3-isobutyryl-2-isopropylpyrazolo[1,5-a]pyridine]
